These results are taken from US10226448B2, “3-(1H-pyrrolo[3,2-C]pyridin-2-yl)-1H-pyrazolo[3,4-B]pyridines and therapeutic uses thereof” (Samumed, LLC, priority 2015, dated 2019).

Common to all, as to format: cell-based
For one assay, the system named is SW480 colon cancer cells. The experiment in a line: Cell viability assay (CellTiter-Blue) in SW480 colon cancer cells. As to conditions: Homo sapiens; for EC50: 96 h, SW480 cell viability, four days, CellTiter-Blue; for inhibition at 10 µM: SW480, read-out: percent inhibition at 10 μM. The method, boiled down: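 Fluorescence from resazurin reduced to resorufin by metabolically active cells was the read-out, taken after ~3 h with CellTiter-Blue.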
A general note: The colour change of resazurin is a common sign of viable cells or microbes.

Assay [1] has as its system LL29 cells (primary human fibroblasts derived from IPF patients), α-smooth muscle actin. Briefly: Inhibition of the fibrotic process: αSMA staining in TGF-β1 treated primary human fibroblasts from IPF patients (LL29 cells). The following applies: Fibroblast; for EC50: 96 h, LL29 cells, TGF-β1 20 ng/mL, 4 days, % αSMA positive cells; for inhibition at 10 µM: read-out: percent inhibition at 10 μM. The gist of the method: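 Read-out after 4-day incubation: αSMA staining with 1 μM SYTOX green nuclear counterstain (30 min, room temperature). Cells were LL29 primary fibroblasts from IPF patients, in 1% FBS F12, exposed to TGF-β1 with test compound, referenced to TGF-β1/DMSO control wells.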

For assay [2], the system named is Wnt activity (Sp5-Luc reporter, TCF/LEF binding sites) in SW480 colon carcinoma cells. The experiment in a line: Wnt activity screening assay: Sp5-Luc reporter gene assay in SW480 cells. As to conditions: Homo sapiens; for EC50: Sp5-Luc reporter, SW480 cells, overnight incubation; for inhibition at 10 µM: SW480, read-out: percent inhibition at 10 μM. The method, boiled down: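 SW480 cells stably carrying a luciferase reporter under a human Sp5 promoter with eight TCF/LEF sites, plated at 4,000 cells/well in 1% FBS medium. Luminescence read with BrightGlo, normalized to DMSO-treated cells; EC50 from four-parameter variable-slope nonlinear regression.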

A further assay has as its system IL-6 in THP-1 cells. The experiment in a line: IL-6 inhibition in LPS-stimulated THP-1 human monocyte cells (HTRF). As to conditions: for EC50: IL-6 inhibition, LPS-stimulated THP-1 cells, HTRF, 10-point dose-response starting from 10 μM. The method, boiled down: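 THP-1 cells were serum-reduced (1% FBS, 24 h), plated at 5000 cells/well with compound for 2 h at 37 °C, then stimulated 22 h with 500 ng/mL LPS. Secreted IL-6 was quantified by HTRF (665/620 nm ratio). Signals were normalised to DMSO, and EC50 was fitted by four-parameter nonlinear regression.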

In assay [3] the test system is primary human mesenchymal stem cells (hMSCs). The experiment in a line: Induction of chondrogenesis in primary human mesenchymal stem cells (chondrogenic nodules, Rhodamine B / Nile Red). The following applies: 6 days; for Emax: relative to TGF-β3 (10 ng/mL) positive control, read-out: Max. Activity as % TGF-β3 activity; for EC50: concentration required to induce 50% levels of chondrogenesis vs TGF-β3, read-out: Conc (nM) of 50% TGF-β3 activity. The source says:
Representative compounds were screened using primary human mesenchymal stem cells (hMSCs) to determine their ability to induce chondrogenesis (process by which cartilage is developed).
Human Mesenchymal Stem Cell Culture: Primary human mesenchymal stem cells (hMSCs) were purchased from Lonza (Walkersville, Md.) and expanded in Mesenchymal Stem Cell Growth Media (Lonza). Cells between passage 3 and 6 were used for the experiments.
To image chondrogenic nodules, the cells were fixed using 4% formaldehyde (Electron Microscopy Sciences), and stained with 2 μg/mL Rhodamine B (Sigma-Aldrich) and 20 μM Nile Red (Sigma-Aldrich) [Johnson K., et. al, A Stem Cell-Based Approach to Cartilage Repair, Science, (2012). […] Number of nodules in each well was normalized to the average of 3 DMSO treated wells on the same plate using Excel (Microsoft Inc.). The normalized averages (fold change over DMSO) of 3 replicate wells for each compound concentration were calculated. Due to solubility limitations of some of the compounds, curve fitting was incomplete leading to inaccurate EC50 determinations.
Using TGF-β3 as a positive control, the concentration of representative compounds required to induce 50% levels of chondrogenesis is reported. In addition, the maximum activity of each compound and the respective dose that each compound reached maximum chondrogenesis activity is reported.

Bounds are passed on as bounds.

With `CCNCc1cncc(-c2cnc3[nH]nc(-c4cc5c(-c6ccccc6F)nccc5[nH]4)c3c2)c1` [Compound 62, N-((5-(3-(4-(2-Fluorophenyl)-1H-pyrrolo[3,2-c]pyridin-2-yl)-1H-pyrazolo[3,4-b]pyridin-5-yl)pyridin-3-yl)methyl)ethanamine], the EC50 is 923 nM with SW480 colon cancer cells, 2370 nM in assay [1], 1080 nM in assay [2] and 1890 nM with IL-6 in THP-1 cells. Besides, the Emax in assay [3] stood at 52%.

Regarding `O=C(Nc1cncc(-c2cnc3[nH]nc(-c4cc5cnccc5[nH]4)c3c2)c1)C1CCCCC1` [Compound 275, N-(5-(3-(1H-Pyrrolo[3,2-c]pyridin-2-yl)-1H-pyrazolo[3,4-b]pyridin-5-yl)pyridin-3-yl)cyclohexanecarboxamide], the EC50 in the assay with SW480 colon cancer cells came out at 1520 nM; in assay [1], 1380 nM; in assay [2] it was 1400 nM; in the assay on IL-6 in THP-1 cells it was 447 nM. The Emax in assay [3] was determined as 9%.

Consider `CN1CCN(c2nccc3[nH]c(-c4n[nH]c5ncc(-c6cncc(CN7CCCCC7)c6)cc45)cc23)CC1` [Compound 239, 3-(4-(4-Methylpiperazin-1-yl)-1H-pyrrolo[3,2-c]pyridin-2-yl)-5-(5-(piperidin-1-ylmethyl)pyridin-3-yl)-1H-pyrazolo[3,4-b]pyridine], for which the EC50 in the assay on SW480 colon cancer cells is 3800 nM; in assay [1], more than 10000 nM; in assay [2], more than 10000 nM; in the assay on IL-6 in THP-1 cells, 3280 nM. For the same compound, the inhibition at 10 µM in assay [1] is 28.8%; in assay [2], 55%. Besides, the Emax in assay [3] was 24%.

Regarding `CS(=O)(=O)NCc1cc(F)cc(-c2nccc3[nH]c(-c4n[nH]c5ncc(-c6cncc(NC(=O)C7CCC7)c6)cc45)cc23)c1` [Compound 497, N-(5-(3-(4-(3-Fluoro-5-(methylsulfonamidomethyl)phenyl)-1H-pyrrolo[3,2-c]pyridin-2-yl)-1H-pyrazolo[3,4-b]pyridin-5-yl)pyridin-3-yl)cyclobutanecarboxamide], the EC50 with SW480 colon cancer cells was more than 10000 nM; in assay [1], more than 10000 nM; in assay [2], 3640 nM; in the assay on IL-6 in THP-1 cells, 124 nM; in assay [3] it was 300 nM. For the same compound, the inhibition at 10 µM in the assay on SW480 colon cancer cells is 48%; in assay [1], 0%. Moreover, the Emax in assay [3] came out at 52%.

In the case of `CC(C)C(=O)Nc1cncc(-c2cnc3[nH]nc(-c4cc5c(-c6cccc(F)c6)nccc5[nH]4)c3c2)c1` [Compound 9, N-(5-(3-(4-(3-Fluorophenyl)-1H-pyrrolo[3,2-c]pyridin-2-yl)-1H-pyrazolo[3,4-b]pyridin-5-yl)pyridin-3-yl)isobutyramide], the EC50 in the assay on SW480 colon cancer cells came to 770 nM; in assay [1], 622 nM; in assay [2] it was 575 nM; in the assay with IL-6 in THP-1 cells, 206 nM. Also, the Emax in assay [3] turned out to be 29%.

In the case of `CC(C)Nc1cncc(-c2cnc3[nH]nc(-c4cc5c(N6CCCCC6)nccc5[nH]4)c3c2)c1` [Compound 180, N-Isopropyl-5-(3-(4-(piperidin-1-yl)-1H-pyrrolo[3,2-c]pyridin-2-yl)-1H-pyrazolo[3,4-b]pyridin-5-yl)pyridin-3-amine], the EC50 in the assay on SW480 colon cancer cells worked out at 3700 nM; in assay [1], 247 nM; in assay [2], 3410 nM; with IL-6 in THP-1 cells it was 2130 nM. Moreover, in assay [3], the Emax was 34%.

As for `O=C(Nc1cncc(-c2cnc3[nH]nc(-c4cc5c(-c6ccccc6F)nccc5[nH]4)c3c2)c1)C1CC1` [Compound 76, N-(5-(3-(4-(2-Fluorophenyl)-1H-pyrrolo[3,2-c]pyridin-2-yl)-1H-pyrazolo[3,4-b]pyridin-5-yl)pyridin-3-yl)cyclopropanecarboxamide], the EC50 with SW480 colon cancer cells came to 450 nM; in assay [1], 2700 nM; in assay [2] it was 321 nM; with IL-6 in THP-1 cells it was 53 nM; in assay [3] it was 30 nM. The Emax in assay [3] turned out to be 78%.

On to `c1cc2[nH]c(-c3n[nH]c4ncc(-c5cncc(CN6CCCCC6)c5)cc34)cc2cn1` [Compound 267, 5-(5-(Piperidin-1-ylmethyl)pyridin-3-yl)-3-(1H-pyrrolo[3,2-c]pyridin-2-yl)-1H-pyrazolo[3,4-b]pyridine], for which the EC50 in the assay on SW480 colon cancer cells was 1240 nM; in assay [1], 1850 nM; in assay [2], 1540 nM; with IL-6 in THP-1 cells, 1560 nM. For the same compound, the Emax in assay [3] turned out to be 40%.

Regarding `CCCCC(=O)Nc1cncc(-c2cnc3[nH]nc(-c4cc5cnccc5[nH]4)c3c2)c1` [Compound 271, N-(5-(3-(1H-Pyrrolo[3,2-c]pyridin-2-yl)-1H-pyrazolo[3,4-b]pyridin-5-yl)pyridin-3-yl)pentanamide], the EC50 in the assay on SW480 colon cancer cells worked out at 4030 nM; in assay [1], 4100 nM; in assay [2], 1470 nM; in the assay on IL-6 in THP-1 cells, 2860 nM. Further, the Emax in assay [3] was 31%.

Regarding `O=C(Nc1cncc(-c2cnc3[nH]nc(-c4cc5cnccc5[nH]4)c3c2)c1)c1ccccc1` [Compound 263, N-(5-(3-(1H-Pyrrolo[3,2-c]pyridin-2-yl)-1H-pyrazolo[3,4-b]pyridin-5-yl)pyridin-3-yl)benzamide], the EC50 was more than 10000 nM with SW480 colon cancer cells; more than 10000 nM in assay [1]; more than 10000 nM in assay [2]; more than 10000 nM with IL-6 in THP-1 cells; 30 nM in assay [3]. The inhibition at 10 µM in the assay on SW480 colon cancer cells is 24.6%; in assay [1] it was 0%; in assay [2] it was 65.5%; in the assay with IL-6 in THP-1 cells (THP-1, read-out: percentage in parentheses beside EC50 >10) it was 30%. The Emax in assay [3] was 70%.

Take `CN(C)Cc1cncc(-c2cnc3[nH]nc(-c4cc5c(-c6cccc(F)c6)nccc5[nH]4)c3c2)c1` [Compound 13, 1-(5-(3-(4-(3-Fluorophenyl)-1H-pyrrolo[3,2-c]pyridin-2-yl)-1H-pyrazolo[3,4-b]pyridin-5-yl)pyridin-3-yl)-N,N-dimethylmethanamine]: the EC50 with SW480 colon cancer cells was 773 nM; in assay [1] it was 2440 nM; in assay [2], 3260 nM; in the assay with IL-6 in THP-1 cells, 6420 nM; in assay [3] it was 10 nM. Besides, in assay [3], the Emax is 110%.

Consider `CC(C)CC(=O)Nc1cncc(-c2cnc3[nH]nc(-c4cc5c(N6CCN(C)CC6)nccc5[nH]4)c3c2)c1` [Compound 226, 3-Methyl-N-(5-(3-(4-(4-methylpiperazin-1-yl)-1H-pyrrolo[3,2-c]pyridin-2-yl)-1H-pyrazolo[3,4-b]pyridin-5-yl)pyridin-3-yl)butanamide], for which the EC50 in the assay on SW480 colon cancer cells was more than 10000 nM; in assay [1] it was more than 10000 nM; in assay [2] it was 3410 nM; in the assay with IL-6 in THP-1 cells it was 141 nM. Further, the inhibition at 10 µM worked out at 57.6% in the assay on SW480 colon cancer cells and 0% in assay [1]. For the same compound, the Emax in assay [3] turned out to be 99%.

Turning to `Cc1ccncc1-c1cnc2[nH]nc(-c3cc4c(-c5cc(F)cc(CNS(C)(=O)=O)c5)nccc4[nH]3)c2c1` [Compound 481, N-(3-Fluoro-5-(2-(5-(4-methylpyridin-3-yl)-1H-pyrazolo[3,4-b]pyridin-3-yl)-1H-pyrrolo[3,2-c]pyridin-4-yl)benzyl)methanesulfonamide], the EC50 in the assay on SW480 colon cancer cells came out at 1500 nM; in assay [1], 600 nM; in assay [2], 662 nM; with IL-6 in THP-1 cells it was 307 nM; in assay [3], 900 nM. Besides, the Emax in assay [3] worked out at 173%.

For `CCNCc1cncc(-c2cnc3[nH]nc(-c4cc5c(-c6cc(F)cc(CNS(C)(=O)=O)c6)nccc5[nH]4)c3c2)c1` [Compound 482, N-(3-(2-(5-(5-((Ethylamino)methyl)pyridin-3-yl)-1H-pyrazolo[3,4-b]pyridin-3-yl)-1H-pyrrolo[3,2-c]pyridin-4-yl)-5-fluorobenzyl)methanesulfonamide], the EC50 in the assay with SW480 colon cancer cells was more than 10000 nM; in assay [1], more than 10000 nM; in assay [2], more than 10000 nM; with IL-6 in THP-1 cells, 2240 nM; in assay [3], 300 nM. The inhibition at 10 µM with SW480 colon cancer cells came out at 16.6%; in assay [1] it was 0%; in assay [2], 8.8%. Further, the Emax in assay [3] was 61%.
